Read-outs that look alike come from different tables or passages of the source.
What was measured:
[1] = system: lung polymorphonuclear neutrophils (PMN); assay: Rat model of pulmonary inflammation (LPS aerosol), lung lavage PMN count; details: oral 1 mg/kg or 10 mg/kg, 4 hours after LPS exposure, versus vehicle
Description: One hour after administration, animals were placed in an aerosol chamber containing 60 μg/mL lipopolysaccharide (LPS) for 40 minutes and then removed to room air. Four hours after LPS exposure, lungs of the animals were lavaged with cold D-PBS/EDTA solution and the total number of polymorphonuclear neutrophils (PMN) in the solution were counted as an indicator of the inflammatory response.

[2] = system: lipopolysaccharide (TLR4)-stimulated cytokines and chemokines; assay: Ex vivo LPS (TLR4)-stimulated cytokine/chemokine production in whole blood of subjects given oral ATI-450; parameters: species or system human; details: for inhibition at 50 mg: Homo sapiens, po, both cohorts (100 mg once daily; 50 mg twice daily), compared to placebo
Description: Data were collected following stimulation by a lipopolysaccharide (LPS) at a single time point (5 hours) in each isolated ex vivo human whole blood sample collected. […]. Cytokines evaluated include: IL-1b, IL-1RA, IL-2, IL-7, IL-8, IL-9, IL-10, basic FGF, GCSF, GMCSF, IFNγ, IP-10, MCP-1, MIP-1α, MIP-1β, PDGF, TNFα, and VEGF.

[3] = test subjects
[4] = Cohort 1 (SAD), 100 mg ATI-450 once daily
[5] = Cohort 2 (MAD), 50 mg ATI-450 twice daily

## Cc1cnc(-c2ccnc(C(C)(C)O)n2)cc1-n1c(C)cc(OCc2ncc(F)cc2F)c(Cl)c1=O (single isomer, unassigned) [ATI-450, 3-chloro-4-((3,5-difluoropyridin-2-yl)methoxy)-2′-(2-(2-hydroxypropan-2-yl)pyrimidin-4-yl)-5′,6-dimethyl-2H-[1,4′-bipyridin]-2-one]
[1]
  total lung PMNs: significantly reduced
[2]; 50 mg ATI-450 twice daily
  LPS-stimulated IL-6, IL-8, MIP-1β, G-CSF, IL-1RA, IP-10, and MCP-1 levels: reduction
[2]; 100 mg ATI-450 once daily
  LPS-stimulated IL-6, IL-8, and MIP-1β release: reduction
[2]; [4]
  GCSF Not Stimulated: 25.01 pg/mL
  GCSF Stimulated: 232.34 pg/mL
  GMCSF Not Stimulated: 0.46 pg/mL
  GMCSF Stimulated: 25.12 pg/mL
  IFNγ Not Stimulated: 12.54 pg/mL
  IFNγ Stimulated: 57.72 pg/mL
  IL-1RA Not Stimulated: 974.42 pg/mL
  IL-1RA Stimulated: 7169.95 pg/mL
  IL-1β Not Stimulated: 1.86 pg/mL
  IL-1β Stimulated: 776.88 pg/mL
  IL-2 Not Stimulated: 0.65 pg/mL
  IL-2 Stimulated: 30.06 pg/mL
  IL-6 Not Stimulated: 15.28 pg/mL
  IL-6 Stimulated: 8700.41 pg/mL
  IL-7 Not Stimulated: 8.79 pg/mL
  IL-7 Stimulated: 8.04 pg/mL
  IL-8 Not Stimulated: 1564.00 pg/mL
  IL-8 Stimulated: 24421.33 pg/mL
  IL-9 Not Stimulated: 0.00 pg/mL
  IL-9 Stimulated: 0.00 pg/mL
  IL-10 Not Stimulated: 22.57 pg/mL
  IL-10 Stimulated: 752.46 pg/mL
  IP-10 Not Stimulated: 288.07 pg/mL
  IP-10 Stimulated: 1487.58 pg/mL
  MCP-1 Not Stimulated: 1026.37 pg/mL
  MCP-1 Stimulated: 1215.21 pg/mL
  MIP-1α Not Stimulated: 105.22 pg/mL
  MIP-1α Stimulated: 32722.63 pg/mL
  MIP-1β Not Stimulated: 504.74 pg/mL
  MIP-1β Stimulated: 49549.56 pg/mL
  TNFα Not Stimulated: 8.57 pg/mL
  TNFα Stimulated: 5270.06 pg/mL
  VEGF Not Stimulated: 186.34 pg/mL
  VEGF Stimulated: 231.92 pg/mL
  bFGF Not Stimulated: 29.69 pg/mL
  bFGF Stimulated: 28.63 pg/mL
[2]; Cohort 1 and Cohort 2
  inhibition of LPS-stimulated IL-1RA: about 30%
  inhibition of LPS-stimulated IL-10: about 30%
[2]; [5]
  GCSF Not Stimulated: 16.33 pg/mL
  GCSF Stimulated: 292.44 pg/mL
  GMCSF Not Stimulated: 0.21 pg/mL
  GMCSF Stimulated: 19.15 pg/mL
  IFNγ Not Stimulated: 33.45 pg/mL
  IFNγ Stimulated: 57.81 pg/mL
  IL-1RA Not Stimulated: 893.81 pg/mL
  IL-1RA Stimulated: 13830.24 pg/mL
  IL-1β Not Stimulated: 2.25 pg/mL
  IL-1β Stimulated: 381.38 pg/mL
  IL-2 Not Stimulated: 2.86 pg/mL
  IL-2 Stimulated: 14.18 pg/mL
  IL-6 Not Stimulated: 5.70 pg/mL
  IL-6 Stimulated: 9359.59 pg/mL
  IL-7 Not Stimulated: 7.40 pg/mL
  IL-7 Stimulated: 6.87 pg/mL
  IL-8 Stimulated: 30259.47 pg/mL
  IL-9 Not Stimulated: 3.10 pg/mL
  IL-9 Stimulated: 2.77 pg/mL
  IL-10 Not Stimulated: 2.05 pg/mL
  IL-10 Stimulated: 108.90 pg/mL
  IP-10 Not Stimulated: 474.58 pg/mL
  IP-10 Stimulated: 1513.02 pg/mL
  MCP-1 Not Stimulated: 728.09 pg/mL
  MCP-1 Stimulated: 1124.80 pg/mL
  MIP-1α Not Stimulated: 193.51 pg/mL
  MIP-1α Stimulated: 38207.05 pg/mL
  MIP-1β Not Stimulated: 806.79 pg/mL
  MIP-1β Stimulated: 89906.73 pg/mL
  TNFα Not Stimulated: 13.44 pg/mL
  TNFα Stimulated: 6402.98 pg/mL
  VEGF Not Stimulated: 202.39 pg/mL
  VEGF Stimulated: 191.77 pg/mL
  bFGF Not Stimulated: 25.04 pg/mL
  bFGF Stimulated: 24.50 pg/mL
[2]; read-out: inhibition of LPS-stimulated GM-CSF
  inhibition at 50 mg: ≥ 70%
[2]; read-out: inhibition of LPS-stimulated IFNγ
  inhibition at 50 mg: ≥ 70%
[2]; read-out: inhibition of LPS-stimulated IL-2
  inhibition at 50 mg: ≥ 70%
[2]; read-out: inhibition of LPS-stimulated MIP-1α
  inhibition at 50 mg: ≥ 70%
[3]
  tolerability: well tolerated

— patent US20230149400A1, “METHODS AND COMPOSITIONSFOR TREATING VIRAL INFECTIONS” (ACLARIS THERAPEUTICS, INC., priority 2020, published 2023)
